In EP1147080B1 (Wyeth Holdings Corporation, priority 1999, dated 2000):
Where two headings read alike, the source gives them in different places.

What was measured:
[1] = target: TNF-α converting enzyme (TACE) (Homo sapiens, UniProt P78536); test: Test procedure for measuring TACE inhibition (fluorescent peptidyl substrate); assay type: biochemical
MMP-13 = MMP-13 (Homo sapiens, UniProt P45452); test: MMP-13 inhibition (thiopeptide or fluorescent peptide substrate); assay type: biochemical; conditions: read-out: MMP13; for inhibition at 10 µM: % @ 10µM per footnote a
Text: Alternatively, a fluorescent peptide substrate is used.

MMP-1 = target: T1, MMP-1 (Homo sapiens, UniProt P03956); test: MMP-1 inhibition (thiopeptide or fluorescent peptide substrate); conditions: for inhibition at 10 µM: read-out: MMP1
T1 sequence (P03956 100-469): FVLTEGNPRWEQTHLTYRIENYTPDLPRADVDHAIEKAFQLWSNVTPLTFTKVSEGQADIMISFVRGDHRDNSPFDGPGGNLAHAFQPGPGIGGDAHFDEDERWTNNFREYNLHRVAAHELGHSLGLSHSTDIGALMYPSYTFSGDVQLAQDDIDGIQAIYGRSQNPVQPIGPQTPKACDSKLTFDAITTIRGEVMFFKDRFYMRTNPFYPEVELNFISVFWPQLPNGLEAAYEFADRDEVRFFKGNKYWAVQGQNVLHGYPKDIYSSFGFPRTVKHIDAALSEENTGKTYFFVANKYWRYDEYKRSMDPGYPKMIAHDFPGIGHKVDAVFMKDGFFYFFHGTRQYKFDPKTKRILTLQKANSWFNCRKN

THP-1 cells = test: Human monocytic THP-1 cell differentiation assay for soluble proteins (THP soluble protein assay), LPS-stimulated, TNF-α ELISA; assay type: cell-based; conditions: for inhibition at 3 µM: Homo sapiens, THP-1; at 3 uM; percent change from vehicle positive control; read-out: TNFalpha at 3 uM) THP (percent change); for THP (% inhibition): Table 1, concentration not given
Text: Mitogenic stimulation of THP-1 cells cause differentiation into macrophage like cells with concomitant secretion of tumor necrosis factor (TNF-a) and TNF receptor (TNF-R p75/80 and TNF-R p55/60) and Interleukin-8 (IL-8), among other proteins. In addition, non-stimulated THP-1 cells shed both the p75/80 and the p55/60 receptors over time. The release of membrane bound TNF-a and possibly TNF-R p75/80 and TNF-R p55/60, but not IL-8, is mediated by an enzyme called TNF-α converting enzyme or TACE.
THP-1 cells (from ATCC) are a human monocytic cell line which were obtained from the peripheral blood of a person with acute monocytic leukemia. They can be grown in culture and differentiated into macrophage like cells by stimulation with mitogens.
Each vial of cells are cultured for about two weeks prior to being used for an assay and then are used for only 4 to 6 weeks to screen compounds.
Cell exposure to DMSO was limited to 0.1 % final concentration. […] Compounds can be evaluated for their effect on basal (non-stimulated) shedding of the receptors by replacing the LPS with […] of THP-1 media. Plates are placed into an incubator set at 5% CO2 and at 37°C. After 4 hours of incubation, […] of tissue culture supernatant (TCS) is removed for use in an TNF-α ELISA. Following 24 hours of incubation, […] of TCS is removed and used for analysis in TNF-R p75/80, TNF-R p55/60 and IL-8 ELISAs.
In addition, at the 24 hours timepoint, and the cells for each treatment group are collected by resuspension in 500 µl/well of THP-1 media and transferred into a FACS tube. […] The samples are run on a Becton Dickinson FaxCaliber FLOW cytometry machine and the amount of dye taken up by each cell is measured in the high red wavelength (FL3). Only cells with compromised membranes (dead or dying) can take up PI. The percent of live cells is calculated by the number of cells not stained with PI, divided by the total number of cells in the sample. The viability values calculated for the drug treated groups were compared to the viability value calculated for the vehicle treated mitogen stimulated group ("vehicle positive control") to determine the "percent change from control". This "percent change from control" value is an indicator of drug toxicity.
The quantity of soluble TNF-α, TNF-R p75/80 and TNF-R p55/60 and IL-8 in the TCS of the THP-1 cell cultures are obtained with commercially available ELISAs from R&D Systems, by extrapolation from a standard curve generated with kit standards. The number of cells that either take up or exclude PI are measured by the FLOW cytometry machine and visualized by histograms using commercially available Cytologic software for each treatment group including all controls.
Biological variability in the magnitude of the response of THP-1 cell cultures requires that experiments be compared on the basis of percent change from "vehicle positive control" for each drug concentration. Percent change in each soluble protein evaluated from the "vehicle positive control" was calculated for each compound concentration with the following formula: % Change =(pg/ml (compound) - pg/ml (veh pos control))/(pg/ml (veh pos control) - pg/ml (veh neg control))x 100 [formula]
For the soluble protein (TNF-a, p75/80, p55/60, IL-8) studies under stimulated conditions, the mean pg/ml of duplicate wells were determined and the results expressed as percent change from "vehicle positive control". For the soluble protein (p75/80 and p55/60 receptors) studies under non-stimulated conditions, the mean pg/ml of duplicate wells were determined and the results expressed as percent change from […] utilizing the following formula: % Change =(pg/ml (compound neg control) - pg/ml (veh neg control))/(pg/ml (veh neg control))X 100 [formula]
IC50 values for each compound are calculated by non-linear regression analysis using customized software utilizing the JUMP statistical package.

[2] = second table, IC50 (nM) per footnote a

Chain of TNF-α converting enzyme (TACE) (P78536 215-824): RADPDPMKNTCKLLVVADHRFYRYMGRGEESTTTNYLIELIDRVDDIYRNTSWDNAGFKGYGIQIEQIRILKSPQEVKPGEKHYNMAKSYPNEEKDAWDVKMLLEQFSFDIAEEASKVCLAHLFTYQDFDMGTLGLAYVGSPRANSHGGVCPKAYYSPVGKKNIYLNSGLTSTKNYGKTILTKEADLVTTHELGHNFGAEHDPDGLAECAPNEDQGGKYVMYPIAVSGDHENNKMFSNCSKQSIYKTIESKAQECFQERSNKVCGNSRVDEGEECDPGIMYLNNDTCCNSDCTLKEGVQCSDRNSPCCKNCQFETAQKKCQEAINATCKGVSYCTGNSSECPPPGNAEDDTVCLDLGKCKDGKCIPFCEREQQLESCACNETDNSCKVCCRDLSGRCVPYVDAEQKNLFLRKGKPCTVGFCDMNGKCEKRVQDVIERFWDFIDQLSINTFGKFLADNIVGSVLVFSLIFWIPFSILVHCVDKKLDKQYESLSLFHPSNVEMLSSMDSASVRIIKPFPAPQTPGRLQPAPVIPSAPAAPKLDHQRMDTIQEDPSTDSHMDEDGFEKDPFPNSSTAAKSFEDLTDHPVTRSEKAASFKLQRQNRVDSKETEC

SMILES	IC50 ([1]; Table 1) [nM]	IC50 (MMP-1) [µM]	also measured
CC#CCOc1ccc(SC(C(=O)NO)c2cccc(Br)c2)cc1 (stereo not drawn) [Example 103, 2-{[4-(2-Butynyloxy)phenyl]sulfanyl}-N-hydroxy-2-(3-bromophenyl) acetamide]			IC50 [1, 2]: 113 nM; inhibition at 10 µM (MMP-13): 12%; inhibition at 10 µM (MMP-1): 4%
CC#CCOc1ccc([S+]([O-])C(CCCCNC(=O)C2c3ccccc3Oc3ccccc32)C(=O)NO)cc1 (stereo not drawn) [Example 29, 9H-Xanthene-9-carboxylic acid [5-(4-but-2-ynyloxy-benzenesulfinyl)-5-hydroxycarbamoyl-pentyl]-amide]	18.9	2	
CC#CCOc1ccc([S+]([O-])C(CCCCNC(=O)CNC(=O)Cc2ccc(Cl)c(Cl)c2)C(=O)NO)cc1 (stereo not drawn) [Example 57]	24.4	4.6	
CC#CCOc1ccc(SC(C(=O)NO)C2CCCCC2)cc1 (stereo not drawn) [Example 73, 2-{[4-(2-butynyloxy)phenyl]sulfanyl}-2-cyclohexyl-N-hydroxyacetamide]			inhibition at 3 µM (THP-1 cells): 0%; inhibition at 10 µM (MMP-1): 4.8%
CC#CCOc1ccc([S+]([O-])C(CCCCNC(=O)CNC(=O)c2ccccc2CCc2ccccc2)C(=O)NO)cc1 (stereo not drawn) [Example 56]	21.9	3.9	
CC#CCOc1ccc([S+]([O-])C(CCCCNC(=O)c2ccc3ccccc3n2)C(=O)NO)cc1 (mixture of isomers) [Example 23, Quinoline-2-carboxylic acid [5-(4-but-2-ynyloxy-benzenesulfinyl)-5-hydroxycarbamoyl-pentyl]-amide]	20.5	3.3	
CC#CCOc1ccc(S(=O)(=O)C(CCCCCC)C(=O)NO)cc1 (stereo not drawn) [Example 5, 2-(4-But-2-ynyloxy-benzenesulfonyl)-octanoic acid hydroxamide]			THP (% inhibition) (THP-1 cells): 6%; IC50 (MMP-1; read-out: MMP1 IC50, Table 1): 10 µM
CC#CCOc1ccc(S(=O)(=O)C(C(=O)NO)C2CCOCC2)cc1 (stereo not drawn) [Example 122, 2-{[4-(2-Butynyloxy)phenyl]sulfonyl}-N-hydroxy-2-tetrahydro-2H-pyran-4-yl-acetamide]			inhibition at 3 µM (THP-1 cells): 36%; inhibition at 10 µM (MMP-13): 57%; inhibition at 10 µM (MMP-1): 9%
CC#CCOc1ccc([S+]([O-])C(CCCCNC(=O)CNC(=O)c2cccn2C)C(=O)NO)cc1 (stereo not drawn) [Example 61, 1-Methyl-1H-pyrrole-2-carboxylic acid {[5-(4-but-2-ynyloxy-benzenesulfinyl)-5-hydroxycarbamoylpentyl-carbamoyl]-methyl}-amide]	22.5	5.6	
CC#CCOc1ccc(SC(C(=O)NO)c2ccc(OCC)cc2)cc1 (stereo not drawn) [Example 100, 2-{[4-(2-butynyloxy)phenyl]sulfanyl}-N-hydroxy-2-(4-ethoxyphenyl) acetamide]			IC50 [1, 2]: 100 nM; inhibition at 10 µM (MMP-13): 15%; inhibition at 10 µM (MMP-1): 2%
CC#CCOc1ccc([S+]([O-])C(CCCCNC(=O)CNC(=O)CCCc2cccs2)C(=O)NO)cc1 (stereo not drawn) [Example 58]	20.1	4.6	
CC#CCOc1ccc(SC(C)C(=O)NO)cc1 (stereo not drawn) [Example 4, 2-(4-But-2-ynyloxy-phenylsulfanyl)-N-hydroxy-propionamide]	47.2		THP (% inhibition) (THP-1 cells): 2%
CC#CCOc1ccc(OCCC(=O)NO)cc1 [Example 9, 3-(4-But-2-ynyloxy-phenoxy)-N-hydroxy-propionamide]	30	10	THP (% inhibition) (THP-1 cells): 16%
CC#CCOc1ccc([S+]([O-])C(CCCCNC(=O)CNC(=O)C2c3ccccc3Oc3ccccc32)C(=O)NO)cc1 (stereo not drawn) [Example 59]	22.6	3.4	
CC#CCOc1ccc(OCC(=O)NO)cc1 [Example 11, 2-(4-But-2-ynyloxy-phenoxy)-N-hydroxy-acetamide]		10	
CC#CCOc1ccc([S+]([O-])C(CCCCNC(=O)CCCc2cccs2)C(=O)NO)cc1 (stereo not drawn) [Example 28, 2-(4-But-2-ynyloxy-benzenesulfinyl)-6-(4-thiophen-2-yl-butyrylamino)-hexanoic acid hydroxyamide]	26.6		
CC#CCOc1ccc([S+]([O-])C(CCCCNC(=O)C(c2ccccc2)c2ccccc2)C(=O)NO)cc1 (stereo not drawn) [Example 30, 2-(4-But-2-ynyloxy-benzenesulfinyl)-6-diphenylacetylamino-hexanoic acid hydroxyamide]	20.1	3.3	
CC#CCOc1ccc([S+]([O-])C(CCCCNC(=O)c2cnc3ccccc3c2)C(=O)NO)cc1 (stereo not drawn) [Example 27, Quinoline-3-carboxylic acid [5-(4-but-2-ynyloxy-benzenesulfinyl)-5-hydroxycarbamoylpentyl]-amide]	46.3		
CC#CCOc1ccc([S+]([O-])C(CCCCNC(=O)CNC(=O)c2cnc3ccccc3c2)C(=O)NO)cc1 (stereo not drawn) [Example 53]	15.2	4	
CC#CCOc1ccc(S(=O)(=O)C(CCCCNC(=O)C2c3ccccc3Oc3ccccc32)C(=O)NO)cc1 (stereo not drawn) [Example 39, 9H-Xanthene-9-carboxylic acid [5-(4-but-2-ynyloxy-benzenesulfonyl)-5-hydroxycarbamoyl-pentyl]-amide]	65.1		
CC#CCOc1ccc(S(=O)(=O)C(CCCCNC(=O)Cc2csc3ccccc23)C(=O)NO)cc1 (stereo not drawn) [Example 42, 6-(2-Benzo[b]thiophen-3-yl-acetylamino)-2-(4-but-2-ynyloxy-benzenesulfonyl)-hexanoic acid hydroxyamide]	24.9		
CC#CCOc1ccc([S+]([O-])C(CCCCNC(=O)Cc2c[nH]c3ccccc23)C(=O)NO)cc1 (stereo not drawn) [Example 33, 2-(4-But-2-ynyloxy-benzenesulfinyl)-6-(2-1H-indol-3-yl-acetylamino)-hexanoic acid hydroxyamide]	35.6		
CC#CCOc1ccc([S+]([O-])C(C(=O)NO)c2ccc(OCC)cc2)cc1 (stereo not drawn) [Example 101, 2-{[4-(2-Butynyloxy)phenyl]sulfinyl}-N-hydroxy-2-(4-ethoxyphenyl) acetamide]			IC50 [1, 2]: 76 nM; inhibition at 10 µM (MMP-13): 51%; inhibition at 10 µM (MMP-1): 8%
CC#CCOc1ccc([S+]([O-])C(CCCCNC(=O)CN2C(=O)c3ccccc3C2=O)C(=O)NO)cc1 (stereo not drawn) [Example 24, 2-(4-But-2-ynyloxy-benzenesulfinyl)-6-[2-(1,3-dioxo-1,3-dihydro-isoindol-2-yl)-acetylamino]-hexanoic acid hydroxyamide]	30		
CC#CCOc1ccc(CCCC(=O)NO)cc1 [Example 12, 4-(4-But-2-ynyloxy-phenyl)-N-hydroxy-butyramide]		10	
CC#CCOc1ccc(SC(CCCCNC(=O)CNC(=O)Cc2csc3ccccc23)C(=O)NO)cc1 (stereo not drawn) [Example 52]	70.2		
CC#CCOc1ccc([S+]([O-])[C@@H](C(=O)NO)c2ccc(Br)cc2)cc1 (single isomer, unassigned) [Example 87]			IC50 [1, 2]: 336 nM; inhibition at 1 µM (MMP-13; % at 1 um (specified in cell)): 33%; inhibition at 10 µM (MMP-1): 17%
